Results published in patent US20240122917A1, “USE OF COMPOSITION CONTAINING CILOSTAZOL IN CEREBROVASCULAR DISEASES” (NEURODAWN PHARMACEUTICAL CO., LTD., priority 2021, published 2024).

Columns and labels:
[1] = test system: mice with focal cerebral ischemia-reperfusion injury (MCAO mice); assay: Mouse focal cerebral ischemia-reperfusion model (internal carotid artery suture method), area of cerebral infarction by TTC staining; type: in vivo, C57BL/6J mice; settings: cilostazol at 3.33-16.67 mg/kg or edaravone at 3.33-16.67 mg/kg in the tail vein
Method: (§1) The animals were subjected to evaluation of neurological deficit symptoms and then sacrificed with CO2. The brain was taken out by cutting off head. The olfactory bulb, cerebellum and lower brainstem were removed. The blood on the surface of the brain was washed with normal saline, and the residual water on the surface was removed. The brain was placed at −20° C. for 20 min, then taken out, immediately cut to a coronal section vertically downward at the crossing plane of the line of sight, and sliced backward every 2 mm. The brain slices were incubated in 1% TTC staining solution (at 37° C. for 30 min). The normal brain tissue was stained into dark red, and the ischemic brain tissue was stained into pale white. After being washed with normal saline, the brain slices were quickly arranged in a row from front to back, removed off the residual water on the surface, and photographed.
Calculation of area of cerebral infarction: The photos were processed by Image J software, and the corresponding area of left brain and non-infarction area of right brain were calculated according to the formula, so that the percentage of the area of infarction was calculated.
The experimental animals were divided into 4 groups, a model group and three groups of compositions of cilostazol/edaravone (respectively a group of cilostazol 3.33 mg/kg+edaravone 16.67 mg/kg in 1:5; a group of cilostazol 5.71 mg/kg+edaravone 14.29 mg/kg in 1:2.5; a group of cilostazol 10 mg/kg+edaravone 10 mg/kg in 1:1, and each composition was administered at a total amount of 20 mg/kg). After the cerebral ischemia model was established, the animals were assigned to each group in a single-blind manner with equal probability. After reperfusion, the animals were immediately administered intravenously with the drugs once. The animals in the model group were administered with an equal volume of normal saline. The animals were sacrificed 24 hours after cerebral ischemia, and their brains were taken out, stained, and photographed for determining the area of cerebral infarction.
Establishment of focal cerebral ischemia-reperfusion model: The mouse focal cerebral ischemia-reperfusion model was established by internal carotid artery suture method. An anesthetized mouse was fixed on an operating table in a supine position. The neck of the mice was cut at the midline, and the subcutaneous tissue was bluntly separated. The right common carotid artery, external carotid artery, and internal carotid artery were separated. […]

plasma protein = settings: background statement; cited from earlier work
[2] = test system: rats with focal cerebral ischemia-reperfusion injury (MCAO rats); assay: Rat focal cerebral ischemia-reperfusion model (internal carotid artery suture method), area of cerebral infarction by TTC staining; type: in vivo, Sprague-Dawley (SD) rats; settings: 24 hours after cerebral ischemia, mean ± SD
[3] = test system: rats with focal cerebral ischemia-reperfusion injury (MCAO rats); assay: as above; type: in vivo, Sprague-Dawley (SD) rats; settings: for Area of cerebral infarction (%): 24 hours after cerebral ischemia, mean ± SD; for area of cerebral infarction in MCAO rats (in words) / neurological deficits in MCAO rats: cilostazol at 1-15 mg/kg or edaravone at 1.67-8.33 mg/kg in the tail vein
Method: The experimental animals were divided into 4 groups, cilostazol group (1 mg/kg), edaravone group (5 mg/kg), cilostazol and edaravone composition group (6 mg/kg, cilostazol:edaravone=1:5, cilostazol 1 mg/kg+edaravone 5 mg/kg) and model group. After the cerebral ischemia model was established, the animals were assigned to each group in a single-blind manner with equal probability. After reperfusion, the animals were immediately administered intravenously with the drugs once. The animals in the model group were administered with an equal volume of normal saline. The animals were sacrificed 24 hours after cerebral ischemia, and their brains were taken out, stained, and photographed for determining the area of cerebral infarction.
The rat focal cerebral ischemia-reperfusion model was established by internal carotid artery suture method. The limbs (hind limbs above the knee joint and forelimbs below the wrist joint) and head of an anesthetized rat were tightened with rubber bands. The animal was fixed on an operating table in supine position, and was shaved with an animal shaver from the head to the chest, and the skin was disinfected with alcohol. The neck of the rat was cut at the midline, and the subcutaneous tissue was bluntly separated. The thin layer of fascia on the surface of the anterior triangle of the neck was separated, the lower side-lower edge of the clavicular hyoid muscle was pulled up, and the longitudinally pulsating artery parallel to this muscle can be seen. The arterial shell was opened, and the bifurcation of the right carotid artery was exposed. The right common carotid artery, external carotid artery and internal carotid artery were separated. The vagus nerve was gently stripped, and the external carotid artery was ligated and cut. The proximal end of the common carotid artery was clamped. An incision was made at the distal end from the ligature of the external carotid artery, and was inserted with a suture line, which was passed through the bifurcation of the common carotid artery into the internal carotid artery, and then was inserted slowly until reaching slight resistance (approximately 20 mm from the bifurcation), so as to block all blood supply to the middle cerebral artery. The suture line was slightly fixed below the incision of the external carotid artery with silk thread. The silk thread clamping the proximal end of the common carotid artery was loosened. A gauze soaked in sterile saline was covered on the wound, and the rat was placed on a heat preservation pad to keep warm. 2.0 h after cerebral ischemia on the right side, the suture line was pulled out gently to restore the blood supply for reperfusion. The external carotid artery was ligated with silk thread fixing the suture line. The skin was stitched, and disinfected. The rats were placed in clean feed, and their general condition and respiration were observed until they woke up from anesthesia. The rats were provided with food and water, and commonly reared.
as §1, with “photographed. […]” for “photographed.”

Row | Compound | area of cerebral infarction in MCAO mice (in words) [1] | neurological deficits in MCAO mice [1] | binding rate to plasma protein (plasma protein) | Area of cerebral infarction (%) ([2]; Example 2, cilostazol 5 mg/kg i.v. once immediately after reperfusion, model group 40.50 ± 8.51) | Area of cerebral infarction (%) ([2]; Example 3, cilostazol 15 mg/kg i.v. once immediately after reperfusion, model group 39.41 ± 9.56) | Area of cerebral infarction (%) ([3]; Example 1, cilostazol 1 mg/kg i.v. once immediately after reperfusion, 2.0 h ischemia, model group 40.35 ± 8.24) | area of cerebral infarction in MCAO rats (in words) [3] | neurological deficits in MCAO rats [3] | Area of cerebral infarction (%) ([2]; Example 3, edaravone 3 mg/kg i.v. once immediately after reperfusion, model group 39.41 ± 9.56) | Area of cerebral infarction (%) ([3]; Example 1, edaravone 5 mg/kg i.v. once immediately after reperfusion, model group 40.35 ± 8.24) | Area of cerebral infarction (%) ([3]; Example 2, edaravone 5 mg/kg i.v. once immediately after reperfusion, model group 40.50 ± 8.51)
1 | O=C1CCc2cc(OCCCCc3nnnn3C3CCCCC3)ccc2N1 [Cilostazol] | reduce the area of cerebral infarction | significantly ameliorate the neurological deficits | about 95% | 32.59 ± 7.15 | 27.26 ± 9.74 | 34.24 ± 7.25 | reduce the area of cerebral infarction | significantly ameliorate the neurological deficits |  |  | 
2 | CC1=NN(c2ccccc2)C(=O)C1 [Edaravone, 3-methyl-1-phenyl-2-pyrazolin-5-one] | reduce the area of cerebral infarction | significantly ameliorate the neurological deficits |  |  |  |  | reduce the area of cerebral infarction | significantly ameliorate the neurological deficits | 31.24 ± 6.83 | 29.35 ± 10.45 | 29.49 ± 9.06
